Patent US10570179B2, “Substituted urea depsipeptide analogs as activators of the CLPP endopeptidase” (priority 2016, dated 2020)
Converted amounts (≈) assume the structure as drawn. Where two headings read alike, the source gives them in different places. Numbered stars: 1 amine (or outer) side, 2 acyl side, 3 side chain; on linkers, the order of the positions; unused ones are H or OH. Bridge positions count the residues as written; N and C are the ends. Square brackets hold non-standard residues; d marks the D form. Peptide text beside a SMILES is read from it. * marks the point of attachment. Phe(3-CF3) = N[C@@H](Cc1cccc(C(F)(F)F)c1)C(=O)O; Piperazine(2S-CO,4-Me) = CN1CCN[C@H](C(=O)O)C1; Phe(3-OMe) = COc1cccc(C[C@H](N)C(=O)O)c1; Phe(3-Me) = Cc1cccc(C[C@H](N)C(=O)O)c1; NH(4-Cl-2-F-phenyl) = Fc1cc(Cl)ccc1N*; Pro(4R-Me) = C[C@H]1CN[C@H](C(=O)O)C1; X1 = O=C([C@@H]1CSCCN1[*:1])[*:2]; Hyp = O=C(O)[C@@H]1C[C@@H](O)CN1; NH(4-Me-phenyl) = Cc1ccc(N*)cc1; aThr = C[C@H](O)[C@H](N)C(=O)O; CO = O=C([*:1])[*:2]; X2 = Fc1cc(N*)ccc1Cl

How the values were obtained:
S. aureus ΔClpP = test: Minimal inhibitory concentration, microbroth dilution; format: cell-based, Staphylococcus aureus; settings: MIC; ClpP inactivated
Method in brief: (§1)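 MICs were determined by CLSI broth microdilution, using two-fold compound dilutions from a final 200 μM and about 10^5 cfu/mL inoculum. Plates were incubated aerobically at 37 °C overnight. The MIC was read visually as the lowest concentration preventing growth.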

[1] = Plasma protein binding, rapid equilibrium dialysis; format: in vitro ADME, human; settings: 10 μM
Method in brief: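 Compound spiked at 10 μM (0.1% DMSO) into human plasma, dialysed against DPBS pH 7.4 across 8 K MWCO RED membrane for 4 h at 37 °C with shaking. Both chambers quantified by LC-MS against warfarin internal standard; % free = buffer/plasma concentration ×100, % bound = 100 − % free.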

[2] = Plasma protein binding, rapid equilibrium dialysis; format: in vitro ADME, mouse
MRSA NRS70 = test: Minimal inhibitory concentration, microbroth dilution; format: cell-based; settings: Staphylococcus aureus
Method in brief: as §1

E. faecails = test: as above; format: cell-based; settings: Enterococcus faecalis
Method in brief: as §1

S. pneumoniae = test: as above; format: cell-based; settings: Streptococcus pneumoniae; MIC; read-out: Minimal Inhibitory Concentrations (μM) S. pneumoniae
Method in brief: as §1

S. aureus ATCC 29213 = test: as above; format: cell-based; settings: Staphylococcus aureus
Method in brief: as §1

S. pyogenes = test: as above; format: cell-based; settings: Streptococcus pyogenes; MIC; read-out: Minimal Inhibitory Concentrations (μM) S. pyogenes
Method in brief: as §1

S. aureus USA 300 = test: as above; format: cell-based; settings: Staphylococcus aureus
Method in brief: as §1

Plasma pharmacokinetics = format: in vivo, male BALB/c mice; settings: for Vd: read-out: Vss
[3] = MIC, read-out: Minimal Inhibitory Concentrations (μM) MRSA NRS70
[4] = MIC, read-out: Minimal Inhibitory Concentrations (μM) E. faecails
[5] = ATCC29213, MIC, read-out: Minimal Inhibitory Concentrations (μM) S. aureus ATCC 29213
[6] = USA300, MIC, read-out: Minimal Inhibitory Concentrations (μM) S. aureus USA 300
[7] = male, BALB/c, mouse, in vivo, iv
[8] = male, BALB/c, mouse, in vivo, iv, 10 mg/kg, Route i.v.

| Compound | Minimal Inhibitory Concentrations (μM) S. aureus ΔClpP (S. aureus ΔClpP) [µM] | Human ([1]; human, 4 h, pH 7.4) [%] | Mouse ([2]; mouse, 4 h, 10 μM, pH 7.4) [%] | MIC (MRSA NRS70; [3]) [µM] | MIC (E. faecails; [4]) [µM] | MIC (S. pneumoniae) [µM] | MIC (S. aureus ATCC 29213; [5]) [µM] | MIC (S. pyogenes) [µM] | MIC (S. aureus USA 300; [6]) [µM] | Vd (Plasma pharmacokinetics; [8]) [L/kg] | further results |
| --- | --- | --- | --- | --- | --- | --- | --- | --- | --- | --- | --- |
| C[C@@H]1C[C@H]2C(=O)OC[C@H](NC(=O)[C@H](Cc3cccc(C(F)(F)F)c3)NC(=O)Nc3ccc(Cl)cc3F)C(=O)N3CCC[C@H]3C(=O)N3CCN(C)C[C@H]3C(=O)N[C@@H](C)C(=O)N2C1 [Compound 18, (S)-2-(3-(4-CHLORO-2-FLUOROPHENYL)UREIDO)-3-(3-(TRIFLUOROMETHYL)PHENYL)-N-((6AS,12S,15AS,17R,21S,23AS)-2,17,21-TRIMETHYL-6,11,15,20,23-PENTAOXOOCTADECAHYDRO-2H,6H,11H,15H-PYRAZINO[2,1-I]DIPYRROLO[2,1-C:2′,1′-L][1]OXA[4,7,10,13]TETRAAZACYCLOHEXADECIN-12-YL)PROPANAMIDE] ({NH(4-Cl-2-F-phenyl)-CO}-[Phe(3-CF3)]SP[Piperazine(2S-CO,4-Me)]A[Pro(4R-Me)]; ester 2-C) | >20 | 99.0 ± 0.1 | 99.2 ± 0.1 | 5 (≈ 4.4 µg/mL) | 0.313 (≈ 0.275 µg/mL) | < 0.02 | 10 (≈ 8.79 µg/mL) | 0.625 (≈ 0.55 µg/mL) | 10 (≈ 8.79 µg/mL) |  |  |
| Cc1cccc(C[C@H](NC(=O)Nc2ccc(Cl)c(F)c2)C(=O)N[C@H]2COC(=O)[C@@H]3C[C@@H](C)CN3C(=O)[C@H](C)NC(=O)[C@@H]3CN(C)CCN3C(=O)[C@@H]3CCCN3C2=O)c1 [Compound 14, (S)-2-(3-(4-CHLORO-3-FLUOROPHENYL)UREIDO)-3-(M-TOLYL)-N-((6AS,12S,15AS,17R,21S,23AS)-2,17,21-TRIMETHYL-6,11,15,20,23-PENTAOXOOCTADECAHYDRO-2H,6H,11H,15H-PYRAZINO[2,1-I]DIPYRROLO[2,1-C:2′,1′-L][1]OXA[4,7,10,13]TETRAAZACYCLOHEXADECIN-12-YL)PROPANAMIDE] ({X2-CO}-[Phe(3-Me)]SP[Piperazine(2S-CO,4-Me)]A[Pro(4R-Me)]; ester 2-C) | >20 | 99.1 ± 0.2 | 98.9 ± 0.1 | 2.5 (≈ 2.06 µg/mL) | 1.25 (≈ 1.03 µg/mL) | 0.625 (≈ 0.516 µg/mL) | 5 (≈ 4.13 µg/mL) | 1.25 (≈ 1.03 µg/mL) | 5 (≈ 4.13 µg/mL) |  |  |
| Cc1cccc(C[C@H](NC(=O)Nc2ccc(Cl)cc2F)C(=O)N[C@H]2COC(=O)[C@@H]3C[C@@H](C)CN3C(=O)[C@H](C)NC(=O)[C@@H]3CN(C)CCN3C(=O)[C@@H]3CCCN3C2=O)c1 [Compound 13, (S)-2-(3-(4-CHLORO-2-FLUOROPHENYL)UREIDO)-3-(M-TOLYL)-N-((6AS,12S,15AS,17R,21S,23AS)-2,17,21-TRIMETHYL-6,11,15,20,23-PENTAOXOOCTADECAHYDRO-2H,6H,11H,15H-PYRAZINO[2,1-I]DIPYRROLO[2,1-C:2′,1′-L][1]OXA[4,7,10,13]TETRAAZACYCLOHEXADECIN-12-YL)PROPANAMIDE] ({NH(4-Cl-2-F-phenyl)-CO}-[Phe(3-Me)]SP[Piperazine(2S-CO,4-Me)]A[Pro(4R-Me)]; ester 2-C) | >20 | 97.0 ± 0.6 | 97.5 ± 0.3 | 1.25 (≈ 1.03 µg/mL) | 0.625 (≈ 0.516 µg/mL) | 0.156 (≈ 0.129 µg/mL) | 1.25 (≈ 1.03 µg/mL) | 0.313 (≈ 0.258 µg/mL) | 2.5 (≈ 2.06 µg/mL) |  |  |
| COc1cccc(C[C@H](NC(=O)Nc2ccc(Cl)cc2F)C(=O)N[C@H]2COC(=O)[C@@H]3C[C@@H](C)CN3C(=O)[C@H](C)NC(=O)[C@@H]3CN(C)CCN3C(=O)[C@@H]3CCCN3C2=O)c1 [Compound 19, (S)-2-(3-(4-CHLORO-2-FLUOROPHENYL)UREIDO)-3-(3-METHOXYPHENYL)-N-((6AS,12S,15AS,17R,21S,23AS)-2,17,21-TRIMETHYL-6,11,15,20,23-PENTAOXOOCTADECAHYDRO-2H,6H,11H,15H-PYRAZINO[2,1-I]DIPYRROLO[2,1-C:2′,1′-L][1]OXA[4,7,10,13]TETRAAZACYCLOHEXADECIN-12-YL)PROPANAMIDE] ({NH(4-Cl-2-F-phenyl)-CO}-[Phe(3-OMe)]SP[Piperazine(2S-CO,4-Me)]A[Pro(4R-Me)]; ester 2-C) | >20 | 98.9 ± 0.2 | 98.3 ± 0.1 | 10 (≈ 8.41 µg/mL) | 10 (≈ 8.41 µg/mL) | 2.5 (≈ 2.1 µg/mL) | 10 (≈ 8.41 µg/mL) | 10 (≈ 8.41 µg/mL) | 10 (≈ 8.41 µg/mL) |  |  |
| Cc1cccc(C[C@H](NC(=O)Nc2ccc(Cl)cc2F)C(=O)N[C@@H]2C(=O)N3CCC[C@H]3C(=O)N3CCSC[C@H]3C(=O)N[C@@H](C)C(=O)N3C[C@H](C)C[C@H]3C(=O)O[C@H]2C)c1 [Compound 38, (S)-2-(3-(4-CHLORO-2-FLUOROPHENYL)UREIDO)-3-(M-TOLYL)-N-((6AS,12S,13S,15AS,17R,21S,23AR)-13,17,21-TRIMETHYL-6,11,15,20,23-PENTAOXOOCTADECAHYDRO-6H,11H,15H-DIPYRROLO[2,1-C:2′,1′-L][1,4]THIAZINO[3,4-I][1]OXA[4,7,10,13]TETRAAZACYCLOHEXADECIN-12-YL)PROPANAMIDE] ({NH(4-Cl-2-F-phenyl)-CO}-[Phe(3-Me)][aThr]P[X1]A[Pro(4R-Me)]; ester 2-C) | >20 | 99.5 ± 9.5 | 96.0 ± 6.0 | 0.039 (≈ 0.0329 µg/mL) | 0.078 (≈ 0.0657 µg/mL) |  | 0.039 (≈ 0.0329 µg/mL) |  | 0.078 (≈ 0.0657 µg/mL) | 1.77 | AUC(0-inf) (Plasma pharmacokinetics; [7]): 13300 ng·h/mL; AUC(0-t) (Plasma pharmacokinetics; [7]): 13200 ng·h/mL; C^0 (Plasma pharmacokinetics; [7]): 16999.46 ng/mL; clearance (Plasma pharmacokinetics; [7]): 12.6 mL/min/kg; half-life (Plasma pharmacokinetics; [7]): 3.11 h |
| Cc1cccc(C[C@H](NC(=O)Nc2ccc3c(c2)OCO3)C(=O)N[C@H]2COC(=O)[C@@H]3C[C@@H](C)CN3C(=O)[C@H](C)NC(=O)[C@@H]3CCCCN3C(=O)[C@@H]3CCCN3C2=O)c1 [Compound 23, (S)-2-(3-(BENZO[D][1,3]DIOXOL-5-YL)UREIDO)-N-((2R,6S,8AS,14AS,20S,23AS)-2,6-DIMETHYL-5,8,14,19,23-PENTAOXOOCTADECAHYDRO-1H,5H,14H,19H-PYRIDO[2,1-I]DIPYRROLO[2,1-C:2′,1′-L][1]OXA[4,7,10,13]TETRAAZACYCLOHEXADECIN-20-YL)-3-(M-TOLYL)PROPANAMIDE] | >20 | 97.1 ± 0.2 | 96.9 ± 0.1 | 0.625 (≈ 0.501 µg/mL) | 0.625 (≈ 0.501 µg/mL) |  | 1.25 (≈ 1 µg/mL) |  | 1.25 (≈ 1 µg/mL) | 2.83 | AUC(0-inf) (Plasma pharmacokinetics; [7]): 12000 ng·h/mL; AUC(0-t) (Plasma pharmacokinetics; [7]): 11700 ng·h/mL; C^0 (Plasma pharmacokinetics; [7]): 25009.24 ng/mL; clearance (Plasma pharmacokinetics; [7]): 13.8 mL/min/kg; half-life (Plasma pharmacokinetics; [7]): 4.57 h |
| Cc1ccc(NC(=O)N[C@@H](Cc2cccc(C)c2)C(=O)N[C@@H]2C(=O)N3C[C@H](O)C[C@H]3C(=O)N3CCN(C)C[C@H]3C(=O)N[C@@H](C)C(=O)N3C[C@H](C)C[C@H]3C(=O)O[C@H]2C)cc1 [Compound 30, (S)—N-((6AS,8R,12S,13S,15AS,17R,21S,23AS)-8-HYDROXY-2,13,17,21-TETRAMETHYL-6,11,15,20,23-PENTAOXOOCTADECAHYDRO-2H,6H,11H,15H-PYRAZINO[2,1-I]DIPYRROLO[2,1-C:2′,1′-L][1]OXA[4,7,10,13]TETRAAZACYCLOHEXADECIN-12-YL)-3-(M-TOLYL)-2-(3-(P-TOLYL)UREIDO)PROPANAMIDE] ({NH(4-Me-phenyl)-CO}-[Phe(3-Me)][aThr][Hyp][Piperazine(2S-CO,4-Me)]A[Pro(4R-Me)]; ester 2-C) | >20 |  |  |  |  |  |  |  |  | 1.74 | Human ([1]; plasma binding, % Bound, human plasma): 94.8 ± 4.8%; C^0 (Plasma pharmacokinetics; Route i.v.): 12355.62 ng/mL; AUC(0-inf) (Plasma pharmacokinetics; male, BALB/c, mouse, in vivo, iv, 10 mg/kg, Route i.v., read-out: AUCinf): 2650 ng·h/mL; AUC(0-t) (Plasma pharmacokinetics; male, BALB/c, mouse, in vivo, iv, 10 mg/kg, Route i.v., read-out: AUClast): 2620 ng·h/mL; clearance (Plasma pharmacokinetics; male, BALB/c, mouse, in vivo, iv, 10 mg/kg, Route i.v., read-out: CL): 63 mL/min/kg; half-life (Plasma pharmacokinetics; male, BALB/c, mouse, in vivo, iv, 10 mg/kg, Route i.v., read-out: T1/2 (converted)): 2.08 h; Mouse ([2]; plasma binding, % Bound, mouse plasma): 92.4 ± 2.4%; MIC (MRSA NRS70; read-out: Minimal Inhibitory Concentrations (μM) MRSA NRS70, MIC): 2.5 µM (≈ 2.04 µg/mL); MIC (E. faecails; read-out: Minimal Inhibitory Concentrations (μM) E. faecails, MIC): 0.313 µM (≈ 0.256 µg/mL); MIC (S. aureus ATCC 29213; ATCC29213, read-out: Minimal Inhibitory Concentrations (μM) S. aureus ATCC 29213, MIC): 0.625 µM (≈ 0.511 µg/mL); MIC (S. aureus USA 300; USA300, read-out: Minimal Inhibitory Concentrations (μM) S. aureus USA 300, MIC): 2.5 µM (≈ 2.04 µg/mL) |
